Assay results taken from patent US20250034136A1 (Nimbus Wadjet, Inc., priority 2023, published 2025).
Read-outs that look alike come from different tables or passages of the source.

Legend:
[1] = tested on: p21 induction in HCT116 cells; assay: p21 induction in HCT116 cells; format: cell-based; conditions: HCT116 cells, 24 h compound incubation, read-out: P21_EC50
Method in brief: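 EC50 from non-linear curve fit of p21 immunofluorescence (800 nm), with GAPDH (700 nm) read alongside. DMSO and a reference WRN inhibitor served as low and high controls. Cells (2,000/well) got 11 compound concentrations in duplicate for 24 h at 37 °C.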

[2] = target: WRN (BV08), human Werner helicase (Uniprot Q14191, amino acids 517-1235 with L1074F point mutation) (Homo sapiens (Human), UniProt Q14191, L1074F); assay: WRN (BV08) ADP-Glo assay; format: biochemical; conditions: class symbols A-E, read-out: ADP-Glo_hWRN_IC50
WRN (BV08), human Werner helicase (Uniprot Q14191, amino acids 517-1235 with L1074F point mutation), sequence (Q14191 other isoform, or with tags, fused parts or gaps L1074F (already in the parent)): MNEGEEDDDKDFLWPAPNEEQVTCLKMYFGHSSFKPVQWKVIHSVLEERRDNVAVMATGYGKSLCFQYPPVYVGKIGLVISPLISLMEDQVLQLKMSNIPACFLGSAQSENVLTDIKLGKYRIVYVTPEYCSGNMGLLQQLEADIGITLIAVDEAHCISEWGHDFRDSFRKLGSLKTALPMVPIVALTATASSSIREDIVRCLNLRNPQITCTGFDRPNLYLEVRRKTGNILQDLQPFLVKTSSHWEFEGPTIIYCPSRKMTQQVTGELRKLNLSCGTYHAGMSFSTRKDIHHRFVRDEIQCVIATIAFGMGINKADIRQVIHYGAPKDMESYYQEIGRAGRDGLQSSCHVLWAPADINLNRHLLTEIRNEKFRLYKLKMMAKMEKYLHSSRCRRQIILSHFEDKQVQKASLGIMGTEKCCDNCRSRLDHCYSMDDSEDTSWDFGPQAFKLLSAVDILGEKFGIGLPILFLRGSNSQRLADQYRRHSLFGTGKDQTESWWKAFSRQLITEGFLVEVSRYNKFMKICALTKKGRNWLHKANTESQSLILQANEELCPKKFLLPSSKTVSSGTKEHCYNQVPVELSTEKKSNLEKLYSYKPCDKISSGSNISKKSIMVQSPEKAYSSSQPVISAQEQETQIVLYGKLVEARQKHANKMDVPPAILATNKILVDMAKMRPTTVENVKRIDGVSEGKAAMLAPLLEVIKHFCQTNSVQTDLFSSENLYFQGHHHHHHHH

Row | Structure (SMILES) | EC50 ([1]; Homo sapiens, HCT-116, 24 h) | IC50 [2] | EC50 [1]
1 | CCc1c(N2CCN(C(=O)c3nccc(F)c3O)CC2)c(=O)c2nc(N(C)C)cnc2n1CC(=O)Nc1ccc(C(F)(F)F)cc1Cl [I-212, N-[2-chloro-4-(trifluoromethyl)phenyl]-2-[2-(dimethylamino)-6-ethyl-7-[4-(4-fluoro-3-hydroxypyridine-2-carbonyl)piperazin-1-yl]-8-oxo-5H,8H-pyrido[2,3-b]pyrazin-5-yl]acetamide] | 500 to 2000 nM | 5 to 50 nM | 
2 | CCc1c(C2=CCN(C(=O)c3ncnc(C)c3O)CC2)c(=O)c2nc(N(C)C)cnc2n1CC(=O)Nc1ccc(C(F)(F)F)cc1Cl [I-213, N-[2-chloro-4-(trifluoromethyl)phenyl]-2-[2-(dimethylamino)-6-ethyl-7-[1-(5-hydroxy-6-methylpyrimidine-4-carbonyl)-1,2,3,6-tetrahydropyridin-4-yl]-8-oxo-5H,8H-pyrido[2,3-b]pyrazin-5-yl]acetamide] | 500 to 2000 nM | 5 to 50 nM | 
3 | [2H]C([2H])([2H])N(c1cnc2c(n1)c(=O)c(N1CCN(C(=O)c3ncnc(C)c3O)[C@H]3CC[C@@H]31)c(CC)n2CC(=O)Nc1ccc(C(F)(F)F)cc1F)C([2H])([2H])[2H] [I-214, 2-{2-[di(2H3)methylamino]-6-ethyl-7-[(1S,6S)-5-(5-hydroxy-6-methylpyrimidine-4-carbonyl)-2,5-diazabicyclo[4.2.0]octan-2-yl]-8-oxo-5H,8H-pyrido[2,3-b]pyrazin-5-yl}-N-[2-fluoro-4-(trifluoromethyl)phenyl]acetamide] | < 500 nM | 5 to 50 nM | 
4 | CCc1c(N2CCN(C(=O)c3ncnc(C)c3O)[C@@H]3CCC[C@H]32)c(=O)c2nc(N(C)C)cnc2n1CC(=O)Nc1ccc(C(F)(F)F)cc1Cl [I-215, 2-{7-[(4aR,7aR)-4-(5-hydroxy-6-methylpyrimidine-4-carbonyl)-octahydro-1H-cyclopenta[b]pyrazin-1-yl]-2-(dimethylamino)-6-ethyl-8-oxo-5H,8H-pyrido[2,3-b]pyrazin-5-yl}-N-[2-chloro-4-(trifluoromethyl)phenyl]acetamide] | > 5000 nM | 100 to 500 nM | 
5 | CCc1c(N2CCN(C(=O)c3ncnc(C)c3O)C3(CCC3)C2)c(=O)c2nc(N(C)C)cnc2n1CC(=O)Nc1ccc(C(F)(F)F)cc1Cl [I-216, N-[2-chloro-4-(trifluoromethyl)phenyl]-2-[2-(dimethylamino)-6-ethyl-7-[5-(5-hydroxy-6-methylpyrimidine-4-carbonyl)-5,8-diazaspiro[3.5]nonan-8-yl]-8-oxo-5H,8H-pyrido[2,3-b]pyrazin-5-yl]acetamide] | > 5000 nM | 50 to 100 nM | 
6 | CCc1c(N2CCN(C(=O)c3ncnc(C)c3O)CC2)c(=O)c2nc(N(C)S(C)(=O)=O)cnc2n1CC(=O)Nc1ccc(C(F)(F)F)cc1Cl [I-217, N-[2-chloro-4-(trifluoromethyl)phenyl]-2-{6-ethyl-7-[4-(5-hydroxy-6-methylpyrimidine-4-carbonyl)piperazin-1-yl]-2-(N-methylmethanesulfonamido)-8-oxo-5H,8H-pyrido[2,3-b]pyrazin-5-yl}acetamide] | > 5000 nM | 100 to 500 nM | 
7 | CCc1c(N2CCN(C(=O)c3nccc(Cl)c3O)CC2)c(=O)c2nc(N(C)C)cnc2n1CC(=O)Nc1ccc(C(F)(F)F)cc1Cl [I-218, 2-{7-[4-(4-chloro-3-hydroxypyridine-2-carbonyl)piperazin-1-yl]-2-(dimethylamino)-6-ethyl-8-oxo-5H,8H-pyrido[2,3-b]pyrazin-5-yl}-N-[2-chloro-4-(trifluoromethyl)phenyl]acetamide] | 500 to 2000 nM | ≤ 5 nM | 
8 | CCc1c(C2CCN(C(=O)c3ncnc(C)c3O)CC2)c(=O)c2nc(N(C)C)cnc2n1CC(=O)Nc1ccc(C(F)(F)F)cc1Cl [I-221, N-[2-chloro-4-(trifluoromethyl)phenyl]-2-[2-(dimethylamino)-6-ethyl-7-[1-(5-hydroxy-6-methylpyrimidine-4-carbonyl)piperidin-4-yl]-8-oxo-5H,8H-pyrido[2,3-b]pyrazin-5-yl]acetamide] | > 5000 nM | 5 to 50 nM | 
9 | CCc1c(N2CCN(C(=O)c3ncnc(C)c3O)[C@H]3CC[C@@H]32)c(=O)c2nc(N(C)C)cnc2n1CC(=O)Nc1ccc(C(F)(F)F)nc1Cl [I-222, N-[2-chloro-6-(trifluoromethyl)pyridin-3-yl]-2-[2-(dimethylamino)-6-ethyl-7-[(1S,6S)-5-(5-hydroxy-6-methylpyrimidine-4-carbonyl)-2,5-diazabicyclo[4.2.0]octan-2-yl]-8-oxo-5H,8H-pyrido[2,3-b]pyrazin-5-yl]acetamide] | < 500 nM | 5 to 50 nM | 
10 | CCc1c(N2CCN(C(=O)c3ncnc(C)c3O)CC2)c(=O)c2nc(C3CCC3)cnc2n1CC(=O)Nc1ccc(C(F)(F)F)cc1Cl [I-223, N-[2-chloro-4-(trifluoromethyl)phenyl]-2-{2-cyclobutyl-6-ethyl-7-[4-(5-hydroxy-6-methylpyrimidine-4-carbonyl)piperazin-1-yl]-8-oxo-5H,8H-pyrido[2,3-b]pyrazin-5-yl} acetamide] | 500 to 2000 nM | 5 to 50 nM | 
11 | CCc1c(N2CCN(C(=O)c3ncnc(C)c3O)CC2)c(=O)c2nc(N3CCCC34CC4)cnc2n1CC(=O)Nc1ccc(C(F)(F)F)cc1Cl [I-224, 2-(2-{4-azaspiro[2.4]heptan-4-yl}-6-ethyl-7-[4-(5-hydroxy-6-methylpyrimidine-4-carbonyl)piperazin-1-yl]-8-oxo-5H,8H-pyrido[2,3-b]pyrazin-5-yl)-N-[2-chloro-4-(trifluoromethyl)phenyl]acetamide] | 2000 to 5000 nM | 5 to 50 nM | 
12 | CCc1c(N2CCN(C(=O)c3c(OC)ncc(C)c3O)C[C@@H]2C)c(=O)c2nc(C3CC3)cnc2n1CC(=O)Nc1ccc(C(F)(F)F)cc1Cl [I-225, N-[2-chloro-4-(trifluoromethyl)phenyl]-2-{2-cyclopropyl-6-ethyl-7-[(2S)-4-(4-hydroxy-2-methoxy-5-methylpyridine-3-carbonyl)-2-methylpiperazin-1-yl]-8-oxo-5H,8H-pyrido[2,3-b]pyrazin-5-yl}acetamide] | < 500 nM | 5 to 50 nM | 
13 | [2H]C([2H])([2H])Nc1cnc2c(n1)c(=O)c(N1CCN(C(=O)c3ncnc(C)c3O)[C@H]3CC[C@@H]31)c(CC)n2CC(=O)Nc1ccc(C(F)(F)F)cc1Cl [I-226, N-[2-chloro-4-(trifluoromethyl)phenyl]-2-{6-ethyl-7-[(1S,6S)-5-(5-hydroxy-6-methylpyrimidine-4-carbonyl)-2,5-diazabicyclo[4.2.0]octan-2-yl]-2-[(methyl-d3)amino]-8-oxo-5H,8H-pyrido[2,3-b]pyrazin-5-yl}acetamide] | < 500 nM | ≤ 5 nM | 
14 | CCc1c(N2CCN(C(=O)c3ncnc(C)c3O)[C@H]3CC[C@@H]32)c(=O)c2nc(NC)cnc2n1CC(=O)Nc1ccc(C(F)(F)F)cc1Cl [I-227, N-[2-chloro-4-(trifluoromethyl)phenyl]-2-{6-ethyl-7-[(1S,6S)-5-(5-hydroxy-6-methylpyrimidine-4-carbonyl)-2,5-diazabicyclo[4.2.0]octan-2-yl]-2-(methylamino)-8-oxo-5H,8H-pyrido[2,3-b]pyrazin-5-yl}acetamide] |  | ≤ 5 nM | < 500 nM
